Laboratory results taken from patent publication US11879140B2, “P21 mRNA targeting DNAzymes” (1E Therapeutics Ltd., priority 2020, dated 2024).

Tested on: senescent human IMR-90 fibroblast cells
Assay type: cell-based
Method: Human IMR-90, BJ, WI-38 fibroblasts and REC epithelial cells were obtained from ATCC and grown at 5% oxygen. IMR-90 and REC cells were maintained in DMEM medium comprising 100 units per ml of penicillin, […] of streptomycin and 10% fetal bovine serum. BJ and WI-38 cells were maintained in EMEM medium comprising 100 units per ml of penicillin, […] of streptomycin, 10% fetal bovine serum, 1% Pyruvate, 1% L-Glutamine, mLFs were isolated according to standard procedures [Seluanov, A., et al. J Vis Exp (2010) (44):2033] and grown at 5% oxygen. Cells were maintained in EMEM medium comprising 100 units per ml of penicillin, […] of streptomycin and 15% fetal bovine serum.
DNA damage induced senescence (DIS) was induced by etoposide treatment (E1383, Sigma) at a concentration of […] for IMR-90, BJ, and WI-38, 16 μM for mLF and 12.5 μM for REC for a duration of 48 hours. Cells acquired the senescence phenotype 7 days post treatment (determined by SA-beta-gal staining).
Oncogene Induced Senescence (OIS) was induced by means of retroviral infection with H-RasG12 (pLNCX2) at 5% oxygen. Retroviruses were packaged, and infections were performed as described below.
Replicative Induced Senescence (RIS) was induced by long-term passaging of the cells in tissue culture. Cells acquired the senescence phenotype after 40 population doublings.
Primary target cells (IMR-90, BJ, […]) were plated in 24-well plates at 100,000 cells per well. Cells were transfected with different concentrations of DNAzymes (as depicted in Table 2, below) using Lipofectamine™ 2000 (Invitrogen) according to manufacturer instructions. The percentage of survival was determined based on quantification of remaining adherent cells using PrestoBlue® reagent (A13262, Life Technologies Ltd.) relative to Lipofectamine™ only control and compared to Scramble DNAzyme (Dz_Scramble) [Scramble Arm (Scr A) sequence: ATCTTCCTFggctagctacaacgaCGCCTCTCC, SEQ ID NO: 5, or Scramble catalytic core (Scr B) sequence: AGGAGAACAacagtaactggcgacGGGATGAGG, SEQ ID NO: 86] treated cells, 3-6 days following transfection.

| Substance | Validated cytotoxicity |
| --- | --- |
| 1684 (DNA GAGAGGGTAGGCTAGCTACAACGATGAAGGGAA; chemistry not given here) [compound 1684] | + |
| 237 (DNA CCGTATACAGGCTAGCTACAACGATGCTGGGGA; chemistry not given here) [compound 237] | + |
| 1013 (DNA TAATTCTAAGGCTAGCTACAACGAGCCAGAGGC; chemistry not given here) [compound 1013] | + |
| 394 (DNA AGGCCTTGTCCGAGCCGGACGAGCCGCATGG; chemistry not given here) [compound 394] | + |
| 1524 (DNA GAGGGGCCAGGCTAGCTACAACGAGAGGGCAGG; chemistry not given here) [compound 1524] | + |
| 1986 (DNA GCAATGAATCCGAGCCGGACGAGGGGAGGGA; chemistry not given here) [compound 1986] | + |
| 1838 (DNA GGACCCTCAGGCTAGCTACAACGACCCCACAGC; chemistry not given here) [compound 1838] | + |
| 252 (DNA TACTCCCCAGGCTAGCTACAACGAATAGCCCGT; chemistry not given here) [compound 252] | + |
| 100 (DNA TCTGGGGTTCCGAGCCGGACGATTAGAGGTC; chemistry not given here) [compound 100] | + |
| 354 (DNA CGGTTCTGAGGCTAGCTACAACGAATGGCGCCT; chemistry not given here) [compound 354] | + |
| 1252 (DNA GGGGGTGAAGGCTAGCTACAACGATTCATAACC; chemistry not given here) [compound 1252] | + |
| 442 (DNA AGTCGCGGTCCGAGCCGGACGACAGCTGCTC; chemistry not given here) [compound 442] | + |
| 1610 (DNA AAGGGTAGTCCGAGCCGGACGAGGGGCTCCT; chemistry not given here) [compound 1610] | + |
| 1467 (DNA TTCACAAGAGGCTAGCTACAACGAAGAGGGGGG; chemistry not given here) [compound 1467] | + |
| 1602 (DNA CTGGGGCTTCCGAGCCGGACGATCAAAAGGT; chemistry not given here) [compound 1602] | + |
| 1800 (DNA TGCTTGAGTCCGAGCCGGACGAGCCTGAGGT; chemistry not given here) [compound 1800] | + |
| 352 (DNA GTTCTGACAGGCTAGCTACAACGAGGCGCCTGA; chemistry not given here) [compound 352] | + |
| 236 (DNA CGTATACATCCGAGCCGGACGAGCTGGGGAA; chemistry not given here) [compound 236] | + |
| 835 (DNA AGGGCTTCTCCGAGCCGGACGACTTGGAGAA; chemistry not given here) [compound 835] | + |
| 111 (DNA CATCCTTTAGGCTAGCTACAACGATTCTGGGGT; chemistry not given here) [compound 111] | + |
| 2200 (DNA AGGCCAGTAGGCTAGCTACAACGAGTTACAGGA; chemistry not given here) [compound 2200] | + |
| 1683 (DNA AGAGGGTATCCGAGCCGGACGAGAAGGGAAA; chemistry not given here) [compound 1683] | + |
| 364 (DNA TGACGGACAGGCTAGCTACAACGACCCCAGCCG; chemistry not given here) [compound 364] | + |
| 1504 (DNA GGGGTGGTTCCGAGCCGGACGAGCTCCAGGA; chemistry not given here) [compound 1504] | + |
| 857 (DNA GCAGGCTTTCCGAGCCGGACGATGTGGGCGG; chemistry not given here) [compound 857] | + |
| 1736 (DNA CCATTGAGTCCGAGCCGGACGAGGGGGTGGG; chemistry not given here) [compound 1736] | + |
| 1873 (DNA ATAACCCCAGGCTAGCTACAACGATCAAGGGGG; chemistry not given here) [compound 1873] | + |
| 1791 (DNA TGCCTGAGGGGCTAGCTACAACGAAGAACTAGG; chemistry not given here) [compound 1791] | + |

| Substance | Validated cytotoxicity |
| --- | --- |
| 78 (DNA TGTCTCCTAGGCTAGCTACAACGACATCCCCTT; chemistry not given here) [compound 78] | + |
| 1003 (DNA GCCAGAGGTCCGAGCCGGACGAGGGGGGCAG; chemistry not given here) [compound 1003] | + |
| 2235 (DNA ACCAGGACAGGCTAGCTACAACGAATGGGGAGC; chemistry not given here) [compound 2235] | + |
| 377 (DNA GGGTTCTGAGGCTAGCTACAACGAGGACATCCC; chemistry not given here) [compound 377] | + |
| 1455 (DNA AGGGGGGTAGGCTAGCTACAACGACAAGAGCCA; chemistry not given here) [compound 1455] | + |
| 1742 (DNA TCCAGTCCAGGCTAGCTACAACGATGAGCTGGG; chemistry not given here) [compound 1742] | + |
| 1418 (DNA AGCTCAGCTCCGAGCCGGACGATAGGCTGTG; chemistry not given here) [compound 1418] | + |
| 2215 (DNA GAGAGAAAAGGCTAGCTACAACGAAGTCCAGGC; chemistry not given here) [compound 2215] | + |
| 304 (DNA TTTGTTGGTCCGAGCCGGACGAAGGAAGGGG; chemistry not given here) [compound 304] | + |
| 1976 (DNA GGGGAGGGAGGCTAGCTACAACGAGGGGTGGAT; chemistry not given here) [compound 1976] | + |
| 224 (DNA TGGGGAAATCCGAGCCGGACGAGGGGCTCAG; chemistry not given here) [compound 224] | + |
| 495 (DNA GAAGTTCCAGGCTAGCTACAACGACGCTCACGG; chemistry not given here) [compound 495] | + |
| 1851 (DNA GTGCCACCAGGCTAGCTACAACGAATGGGACCC; chemistry not given here) [compound 1851] | + |
| 75 (DNA CTCCTACCAGGCTAGCTACAACGACCCCTTCCT; chemistry not given here) [compound 75] | + |
| 1786 (DNA GAGGTAGAAGGCTAGCTACAACGATAGGGTGCC; chemistry not given here) [compound 1786] | + |
| 846 (DNA GTGGGCGGAGGCTAGCTACAACGATAGGGCTTC; chemistry not given here) [compound 846] | + |
| 603 (DNA ATCCCGGCTCCGAGCCGGACGACGCCGGGGC; chemistry not given here) [compound 603] | + |
| 1991 (DNA AAAGTGCAAGGCTAGCTACAACGAGAACTGGGG; chemistry not given here) [compound 1991] | + |
| 387 (DNA GCTGCCGCAGGCTAGCTACAACGAGGGTTCTGA; chemistry not given here) [compound 387] | + |
| 1872 (DNA TAACCCCATCCGAGCCGGACGACAAGGGGGC; chemistry not given here) [compound 1872] | + |
| 1938 (DNA TTTGAGGGGGGCTAGCTACAACGACAGTGTCTC; chemistry not given here) [compound 1938] | + |
| 1582 (DNA CAGGGGAGTCCGAGCCGGACGAAAAGAGGGA; chemistry not given here) [compound 1582] | + |
| 16 (DNA CCTCTTCTAGGCTAGCTACAACGAGCCAGAGCT; chemistry not given here) [compound 16] | + |
| 185 (DNA CAGATCATGGGCTAGCTACAACGAAGCAAAGAA; chemistry not given here) [compound 185] | + |
| 974 (DNA GGGTATGTAGGCTAGCTACAACGAATGAGGAGG; chemistry not given here) [compound 974] | + |
| 1417 (DNA GCTCAGCCTCCGAGCCGGACGAAGGCTGTGC; chemistry not given here) [compound 1417] | + |
| 174 (DNA GCAAAGAAAGGCTAGCTACAACGAGACTATAGT; chemistry not given here) [compound 174] | + |
